Data reported in a melting point compilation (Tetko et al.; mined from patent text by program, amines drawn as free bases though some values may be those of a salt).

Row | SMILES | melting point
1 | CCOC(=O)C(NC(=O)c1ccccc1Cl)(c1nc(OC)cc(OC)n1)C(C)C (configuration not stated) | 94 to 95 °C
2 | CC(C)(C)NC(=O)[C@@H]1C[C@H](Br)CN1C(=O)[C@@H](O)[C@H](Cc1ccccc1)NC(=O)[C@H](CC(N)=O)NC(=O)OCc1ccccc1 | 100 to 105 °C
3 | NC(=NO)c1ccc(-c2ccc(O)cc2)o1 | 157 to 158 °C
4 | CCOCc1cc(OC)c(-c2ccc(C[C@H](NC(=O)c3c(F)cccc3F)C(=O)OCC)cc2)c(OC)c1 | 87 to 89 °C
5 | CC(C)Oc1nc(N)nc2c1ncn2CCC(CO)CO | 112 to 114 °C
6 | CCOC(=O)N1C(NC(C)C)=NS(=O)(=O)c2c1cnn2C | 141 to 145 °C
7 | CCOCCNc1ncc(Cc2cc(OC)c(OC)c(OC)c2)c(N)n1 | 147 °C
8 | CC1C[C@@H]2[C@H](O1)[C@@H](NC(=O)OC(C)(C)C)CN2Cc1ccccc1 (relative stereo) | 56 to 60 °C
9 | CC(=O)CN1CCNC1=Nc1c(Cl)cccc1Cl | 84 to 86 °C
10 | C=CCN[C@H]1CC(C(=O)OCC)=C[C@@H](OC(CC)CC)[C@@H]1NC(C)=O | 100 to 104 °C
11 | CCOC(=O)C1(Oc2ccc(O)cc2)CCC1 | 118 to 120 °C
12 | CCc1c(CCC(=O)O)ccc2c1OCO2 | 127 to 128 °C
13 | Cc1cccnc1NC(=O)OC(C)(C)C | 132 to 133 °C
14 | O=C1C2CC2C(=O)N1CCC1=CCCCC1 (configuration not stated) | 60 to 61 °C
15 | C[Si](C)(C)C#C[C@@]1(O)[C@@H](COC(=O)c2ccc(Cl)cc2)OC(O)[C@@H]1O (some centres not stated) | 130 to 132 °C
16 | COC(=O)CC[C@H](NC(=O)c1ccc(C#Cn2cnc3nc(C)c(OC(=O)C(C)(C)C)c-3c2O)cc1)C(=O)OC | 163 °C
17 | COC(=O)c1c(SC)nn(C2CCCC2)c1N | 88 to 89 °C
18 | N#Cc1ccc(Oc2ccc(F)cc2)nc1 | 120 to 121 °C
19 | CCOc1cc2ncc(C#N)c(NCc3ccc(F)c(F)c3)c2cc1OCC | 167 to 169 °C
20 | Cc1ccc(C(=O)O)c(Sc2nc(C)c(CC(=O)O)s2)n1 | 223 to 225 °C
21 | CN(C)c1ncnc2c(O)cccc12 | 104 to 105 °C
22 | CCCCCC(NS(=O)(=O)c1ccc(Cl)cc1)c1ccc(CCCC(=O)O)cc1 (single isomer, unassigned; (-)) | 134 to 137 °C
23 | COc1ccc2oc(Cc3c(Cl)cccc3Cl)c(CC#N)c2c1 | 184 °C

Row | SMILES | melting point
24 | COC(=O)C(Cl)=Cc1cc([N+](=O)[O-])ccc1Cl | 108 to 110 °C
25 | COC(=O)C1CCC2C3CCC4=CC(O)CCC4(C)C3C(=O)CC12C (configuration not stated) | 121 to 125 °C
26 | C=CCc1c(F)c(F)c(NN)c(F)c1F | 79 to 81 °C
27 | CCCc1nc2c(N)nc3ccccc3c2n1CCOCCCCl | 131 to 132 °C
28 | Brc1ccccc1-c1nnnn1C(c1ccccc1)(c1ccccc1)c1ccccc1 | 160 to 162 °C
29 | CC(C)(C)OC(=O)N[C@H]1CCC(=O)C1 | 97 to 98 °C
30 | CC(=O)Oc1ccc(NC(=O)c2ccc(Sc3cc4c(cc3C)C(C)(C)CCC4(C)C)cc2)cc1 | 186 to 187 °C
31 | C#CC[C@H](c1nc2cc(Cl)ccc2c(=O)n1Nc1ccccc1)N(CCCNC(=O)OCc1ccccc1)C(=O)c1cccc(Cl)c1F | 103 to 105 °C
32 | Fc1ccc(C(c2ccc(F)c(F)c2)c2ccc(F)c(F)c2)cc1F | 95 to 96 °C
33 | CSc1ccc2nc(N)c(C(N)=O)cc2c1 | 229 to 242 °C
34 | Nc1c(Br)cc(Cl)cc1C(=O)c1ccccc1Cl | 100 to 101 °C
35 | CC(=O)c1cc(OCC(O)COc2ccc(C#N)cc2)ccc1O (configuration not stated) | 118 to 120 °C
36 | COC(=O)CCSC(SCCC(=O)OC)c1cccc(C=Cc2nc3cc(Cl)ccc3o2)c1 | 66 to 67 °C
37 | COC(=O)c1c(C)c([N+](=O)[O-])cc2nc(Cl)c(Cl)nc12 | 155 to 157 °C
38 | CCNc1ccc(C(=O)Nc2ccc3ccc(OC)nc3n2)cc1 | 134 °C
39 | Cc1cc(F)ccc1-c1nc(NCCNC(=O)Nc2cccc(F)c2)nc2c1ccc(=O)n2-c1c(F)cccc1F | 131 to 144 °C
40 | C=CCCN1C(C)=C(C(=O)OC)C(c2ccccc2)C(C(=O)OC)=C1C | 108 to 110 °C
41 | COC(=O)Cc1ccc(OCCNC(=O)C2Cc3ccccc3N2S(=O)(=O)c2ccc(-c3ccc(F)cc3Cl)cc2)cc1 (configuration not stated) | 68 °C
42 | C1CNC2CNCC2C1 (configuration not stated) | 65 to 67 °C
43 | CCNC(=O)c1c(Cl)cccc1[Si](C)(C)C | 105 to 107 °C
44 | CNC(=O)[C@@H]1C[C@@H](OC)CN1C(=O)OCc1ccccc1 | 45 to 47 °C
45 | C[C@H]1CCCC(C)(C)[C@@H]1C(=O)O | 44 to 54 °C

Further lines, results first:

Row | melting point | SMILES
46 | 175 to 176 °C | CCCc1c(C(=O)NCc2ccc3c(Br)c(OCC#N)ccc3c2)cnn1-c1ccccc1
47 | 250 to 251 °C | COC(=O)c1cnc2c3cc(NC(=O)C4CCCCC4)ccc3ncn2c1=O
48 | 193 to 194 °C | COc1ccc(CCOc2ccnc(-c3cccc(C(=O)O)c3)n2)cc1OC
49 | 230 °C | N#CC1=C(c2cccs2)Nc2n[nH]cc2C1c1cccc2nonc12 (configuration not stated)
50 | 136 to 142 °C | O=c1c2c(nc3c(O)cccn13)CCC2
51 | 115 to 126 °C | N#Cc1ccc2c(c1)c(C1CCC(=O)CC1)cn2Cc1ccccc1
52 | 105 to 107 °C | O=C(C[N+](=O)[O-])c1ncn(Cc2ccccc2)c1[N+](=O)[O-]
53 | 97 to 99 °C | CC(C)(C)OC(=O)N1CCC(C(=O)Nc2ccccc2Oc2ccc(Cl)cc2)CC1
54 | 243 to 244 °C | COc1ccc(Cn2cnc(=O)c3[nH]c(C(C)C)nc32)cc1OC1CCCC1
55 | 145 to 147 °C | CC12CCC3c4cc(C=O)c(OCc5ccccc5)cc4CCC3C1CCC2OCc1ccccc1 (configuration not stated)
56 | 168 to 170 °C | OCC1(c2ccc(Cl)cc2)CC1c1ccc(-c2ccccc2)cc1 (configuration not stated)
57 | 96 to 106 °C | Cc1noc(NS(=O)(=O)c2ccccc2-c2ccc(-c3cccnc3)cc2)c1C
58 | 82 to 84 °C | FC(F)(F)c1ccc(-c2nc(Cl)cc(-c3ccccc3)n2)cc1
59 | 166 to 168 °C | Clc1nc2ccccc2n2cnc(-c3nc(C4CC4)no3)c12
60 | 291 to 292 °C | CN1CCN(Cc2cc(NC(=O)Nc3ccc(Oc4cc(Cl)ncn4)cc3)cc(C(F)(F)F)c2)CC1
61 | 200 to 201 °C | CC(C)n1nc(-c2sc(NC(=O)NCc3ccccc3)nc2-c2ccccc2)ccc1=O
62 | 51 °C | O=C(C1CCCCC1)N1c2ccc(F)cc2CCC1CN1CCN(c2ccccc2OCC(F)(F)F)CC1 (configuration not stated)
63 | 212 °C | O=C(O)CON=c1c2nccc3cccc(c32)n2cccc12
64 | 260 to 261 °C | O=C1NC(=O)C(=Cc2ccc3c(c2)CN(c2ccccn2)CCO3)S1
65 | 97 to 99 °C | COC(=O)CC(c1ccc(C)cc1)N1C(=O)c2ccccc2C1=O (configuration not stated)
66 | 230 °C | Nc1nc[nH]c1-c1n[nH]c(-c2ccc(-c3ccccc3)cc2)n1
67 | 169 to 171 °C | COc1cc2ncnc(N3CCN(C(=S)Nc4cccc(C(C)C)c4)CC3)c2cc1OC
68 | 138 °C | COc1cc2c(cc1OC)CN(CCCc1ccc(N)cc1)CC2
69 | 177 to 178 °C | Cc1nc(N2CCN(Cc3ccc(F)cc3)C2=O)sc1C(=O)NCc1ccc(F)cc1
70 | 118 to 126 °C | O=C(COc1cc(Cl)c(Cl)c([N+](=O)[O-])c1)c1ccccc1
71 | 100 °C | Cc1ccc(-n2nc(C)cc2-c2ccnc(Cl)c2)cc1

Row | melting point | SMILES
72 | 98 to 100 °C | O=C(O)COc1ccc(SCc2ccc(OCc3cc(Cl)ccc3Cl)cc2)c2c1CCCO2
73 | 222 °C | COC1CCN(c2cc3c(cc2C#Cc2ccccc2)NC(=O)CC(c2cccc(-n4ccnc4)c2)=N3)CC1
74 | 108 to 109 °C | CC(C)c1ccc2nc3ccc(C(=O)OCCCc4cccnc4)cn3c(=O)c2c1
75 | 116 °C | COc1ccc(Cl)c(Oc2c(COCC(O)CO)nc(N3CCOCC3)nc2NS(=O)(=O)c2ccc(C(C)C)cn2)c1 (racemic)
76 | 169 to 171 °C | CC(=O)Nc1ccc(N2CCN(c3ccc(OCC(O)(Cn4cncn4)c4ccc(Cl)cc4Cl)cc3)CC2)cc1 (configuration not stated)
77 | 218 to 219 °C | CCCOc1ccccc1-c1nc2cc3ncn(Cc4ccccc4)c3cc2c(=O)[nH]1
78 | 227 to 229 °C | Cc1c(-c2ccc(O)c(F)c2)sc(C=O)c1-c1ccc(O)cc1
79 | 101 to 103 °C | NCCNC(=O)Nc1ccccc1C(=O)NCC1CCN(C(c2ccccc2)c2ccccc2)CC1
80 | 192 °C | NC(=S)C1(c2ccccn2)CCCS1 (configuration not stated)
81 | 101 to 106 °C | CC1c2cccc3c2N(CC3)c2ccccc2N1C(=O)CN(C)Cc1ccccc1 (configuration not stated)
82 | 184 to 185 °C | O=C(NCc1ccccc1)Nc1nnc(-c2ccc(CN3CCCCCC3)s2)o1
83 | 198 °C | COc1ccc2sc(C(=O)Oc3ccccc3)c(Oc3ccccc3)c2c1
84 | 179 to 180 °C | O=C(Nc1c[nH]nc1C(=O)NCCCc1ccccc1)c1ccccn1
85 | 290 °C | CC1=CC(=C=C2C(C#N)C(=C(C#N)C#N)OC2(C)C)C=C(C)N1c1ccccc1 (configuration not stated)
86 | 72 to 75 °C | CC(C)c1cc(-c2ccc(F)cc2)c(C=O)c(C(C)C)n1
87 | 288 to 289 °C | CCN1Cc2ccc(Cl)cc2-c2c(C(=O)N3CCOCC3)cc(-c3ccccc3)c(=O)n21
88 | 79 to 81 °C | c1ccc(CSc2nc3ccccn3n2)cc1
89 | 176 to 178 °C | Oc1ccc(-c2ccc(-c3ccccc3)nc2-c2ccc(OCCN3CCCC3)cc2)cc1
90 | 225 to 228 °C | O=C1Nc2cccc(Cl)c2C(=O)N2CC[C@@H]12
91 | 243 to 245 °C | CN(Cc1cccc2c1C(=O)N(C1CCC(=O)NC1=O)C2=O)C(=O)NC1CCCCC1 (configuration not stated)
92 | 176 to 178 °C | CN1C=C(N2CCCC2)c2ccc3ccccc3c2S1(=O)=O
93 | 204 to 206 °C | NC(=O)OCCn1cc(C(=O)O)c(=O)c2cc(F)c(N3CCNCC3)c(F)c21
94 | 53 to 54 °C | Clc1cccc(-c2cnccn2)c1
95 | 226 to 227 °C | CS(=O)(=O)NCCn1c2ccccc2c(=O)c2ccccc21
96 | 148 °C | CC(C)c1cccc(CCC(O)CC2CCCCC2)c1NC(=O)CC1c2ccccc2Oc2ccccc21 (configuration not stated)
97 | 81 °C | CC1(C)C=Cc2cc(S(=O)(=O)C[N+](=O)[O-])ccc2O1
